This is an account of results in patent US7807673B2, “2-pyrimidinyl pyrazolopyridine ErbB kinase inhibitors” (GlaxoSmithKline LLC, priority 2005, dated 2010).

The subject of assay [1] is BT474 and HN5 tumor cell lines. Briefly: Celltiter Glo growth inhibition assay (cellular Method B). It is filed as cell-based. As to conditions: Homo sapiens, BT-474, 72 h; Table 2, Method B Celltiter Glo, 3 days; class over BT474 and HN5. How it is done:
(§1) Human breast tumor cells (BT474) were cultured in RPMI, (Invitrogen, 22400) containing 10% fetal bovine serum (FBS). Human head and neck tumor cells (HN5) were cultured in low glucose DMEM (Invitrogen, 12320) containing 10% FBS. Human colon tumor cells (Colo205) were cultured in DMEM (Invitrogen, 10564) containing 10% FBS. All cell lines were maintained at 37° C. in a humidified 5% CO2, 95% air incubator. Cells were harvested using trypsin/EDTA, counted using a haemocytometer, and plated in 30 microliters of the appropriate media described above, at the following densities, in a half area, black-walled, 96-well tissue culture plate (Corning 3882): BT474 3,000 cells/well, HN5 500 cells/well and Colo205 cells, 3,000 cells/well. The next day, compounds were diluted in DMEM containing 100 mg/ml gentamicin, from 10 mM stock solutions in DMSO. 30 microliters/well of these dilutions were added to the 30 microliters/well of media currently on the cell plates. Medium containing 0.6% DMSO was added to control wells. The final concentration of DMSO in all wells was 0.3%. Cells were incubated at 37° C., 5% CO2 for 3 days. Cell biomass was estimated using Celltiter Glo (Promega G7571). Briefly, plates were removed from the incubator and allowed to equilibrate to rt for 30 minutes. 60 microliters of Celltiter Glo reagent were added to each well of the treated cells and plates were shaken on an orbital plate shaker for 2 min. Plates were incubated without shaking for 30 more min and read in a luminometer with an integration time of 0.5 seconds per well. Percent inhibition of cell growth was calculated relative to vehicle treated control wells. Concentration of compound that inhibits 50% of vehicle control cell growth (IC50) was interpolated using nonlinear regression (Levenberg-Marquardt) and the equation, y=Vmax*(1−(x/(K+x)))+Y2, where “K” was equal to the IC50.
A general note: ATP-based viability assays read luminescence as a measure of living cells.

For assay [2], the system named is Colo205 tumor cell lines. The description is as above. To be noted: Homo sapiens, COLO 205, 72 h, Table 3, Method B Celltiter Glo, 3 days. The format is cell-based. How it is done: as §1
The target of assay [3] is T1, ErbB2 or EGFR.
T1 construct: enzymes purified from a baculovirus expression system
The experiment in a line: ErbB enzyme substrate phosphorylation assay (HTRF), Method B (enzyme pre-incubated with compound 1 hour). To be noted: Table 1, enzyme Method B: enzyme mix incubated with compound 1 hour at 20° C., reaction started with substrate mix; class over ErbB2 or EGFR. It is filed as biochemical. As for the experimental part: Compounds of the present invention were tested for EGFR, ErbB-2, and ErbB-4 protein tyrosine kinase inhibitory activity in substrate phosphorylation assays using enzymes purified from a baculovirus expression system. Reagent production was conducted essentially as described in Brignola, P. S., et al, (2002) J. Biol. Chem. 277(2): 1576-1585.
The method measures the ability of the isolated enzyme to catalyse the transfer of the gamma-phosphate from ATP onto the tyrosine residue of a biotinylated synthetic peptide referenced “Peptide C” in Brignola, P. S., et al, (2002) J. Biol. Chem. 277(2):1576-1585. The extent of tyrosine phosphorylation was measured using an anti-phosphotyrosine antibody, and quantified by homogenous time-resolved fluorescence (HTRF).
Reactions were performed in black 384-well polystyrene flat-bottom plates in a final volume of 20 μl. Assays were performed by adding 10 μl of each of the following solutions, substrate Mix and enzyme mix: The Substrate mix contained 100 mM 3-[N-morpholino]propanesulfonic acid (MOPS) (pH 7.5), 2 mM MnCl2, 20 μM ATP, 0.01% Tween-20, 0.1 mg/mL (BSA), 0.8 uM peptide substrate, and 1 mM dithiothreitol. The enzyme mix contained 100 mM MOPS (pH7.5); 0.01% Tween-20; 0.1 mg/mL BSA, and either 0.8 nM EGFR, 10 nM ErbB2, or 1 nM ErbB4
During the course of these studies, two separate methods have been used to measure the potency of compounds. In Method A, the substrate mix was added to the compound plates first, then the reaction was started by adding the enzyme mix. In Method B, the enzyme mix was added to the compound plates and the plates were incubated at 20° C. for 1 hour. The reactions were then started by adding the substrate mix.
After initiating the reaction with either method describe above, the reactions were allowed to proceed for 90 minutes at 20° C. The reactions were then terminated by the addition of 20 μl 100 mM EDTA to each well. 40 μl/well of HTRF detection mix were added to the assay plates. The final concentrations of the detection reagents were: 100 mM HEPES (pH7.5), 0.1 mg/mL BSA, 15 nM streptavidin-labeled allophycocyanin (PerkinElmer), and 1 nM europium-labeled anti-phosphotyrosine antibody (PerkinElmer). Assay plates were left unsealed and were counted in a Wallac Multilabel Counter 1420 (PerkinElmer).
Compounds under analysis were dissolved in Me2SO to 1.0 mM and serially diluted 1 to 3 with Me2SO through twelve dilutions. 1 μl of each concentration was transferred to the corresponding well of an assay plate. This creates a final compound concentration range from 0.00027 to 47.6 μM.
The data for dose responses were plotted as % Inhibition calculated with the data reduction formula 100*(1−(U1−C2)/(C1−C2)) versus concentration of compound where U is the unknown value, C1 is the average control value obtained for 4.76% DMSO, and C2 is the average control value obtained for 0.035 M EDTA. Data were fitted with a curve described by: y=((Vmax*x)/(K+x))+Y2 where Vmax is the upper asymptote, Y2 is the Y intercept, and K is the IC50. The results for each compound were recorded as pIC50s, calculated as follows: pIC50=−Log 10(K)
In general terms: Time-resolved FRET reads energy transfer from a long-lived donor to a nearby acceptor.

The term IC50 denotes the concentration needed to halve the response being measured. Low readings indicate inhibition by little substance, high ones a need for much substance. For the compound `CN(C)Cc1cccc(Nc2nccc(-c3c(-c4ccc(F)c(NC(=O)Cc5cccs5)c4)nn4ccccc34)n2)c1` [Example 36, N-(5-{3-[2-({3-[(dimethylamino)methyl]phenyl}amino)-4-pyrimidinyl]pyrazolo[1,5-a]pyridin-2-yl}-2-fluorophenyl)-2-(2-thienyl)acetamide], the IC50 in assay [1] and in assay [2] was 100 to 1000 nM throughout. For the same compound, the “Activity (Method)” value in assay [3] was “++ (B) (at least one pIC50 measurement greater than 6 against either ErbB2 or EGFR but no measurement greater than pIC50 of 7)”.
With `CN1CCc2ccc(Nc3nccc(-c4c(-c5ccc(F)c(NC(=O)Cc6cccs6)c5)nn5ccccc45)n3)cc2C1` [Example 63, N-[2-Fluoro-5-(3-{2-[(2-methyl-1,2,3,4-tetrahydro-7-isoquinolinyl)amino]-4-pyrimidinyl}pyrazolo[1,5-a]pyridin-2-yl)phenyl]-2-(2-thienyl)acetamide], in assay [3], the “Activity (Method)” value is reported as “+++ (B) (at least one pIC50 measurement of greater than 7 against either ErbB2 or EGFR)”.
Regarding `Cc1ncoc1-c1cccc(Nc2nccc(-c3c(-c4cccc(NC(=O)Cc5cccs5)c4)nn4ccccc34)n2)c1` [Example 52, N-{3-[3-(2-{[3-(4-methyl-1,3-oxazol-5-yl)phenyl]amino}pyrimidin-4-yl)pyrazolo[1,5-a]pyridin-2-yl]phenyl}-2-(2-thienyl)acetamide], the IC50 in assay [1] and in assay [2] was 100 to 1000 nM each time.
Consider `COc1ccc(-c2nn3ccccc3c2-c2ccnc(Nc3cccc(OCCN(C)C)c3)n2)cc1NC(=O)Cc1cccs1` [Example 65, N-[5-(3-{2-[(3-{[2-(Dimethylamino)ethyl]oxy}phenyl)amino]-4-pyrimidinyl}pyrazolo[1,5-a]pyridin-2-yl)-2-(methyloxy)phenyl]-2-(2-thienyl)acetamide], for which, in assay [3], the “Activity (Method)” value is “+ (B) (no pIC50 measurement greater than 6 against either ErbB2 or EGFR)”.
For `Cc1ccc2c(-c3ccnc(Nc4cccc(OCCN(C)C)c4)n3)c(-c3cccc(NC(=O)Cc4cccs4)c3)nn2c1` [Example 72, N-[3-(3-{2-[(3-{[2-(Dimethylamino)ethyl]oxy}phenyl)amino]-4-pyrimidinyl}-6-methylpyrazolo[1,5-a]pyridin-2-yl)phenyl]-2-(2-thienyl)acetamide], the “Activity (Method)” value in assay [3] was “+++ (B) (at least one pIC50 measurement of greater than 7 against either ErbB2 or EGFR)”.
As to `Cc1ccc2c(-c3ccnc(Nc4cccc(CN5CCCC5)c4)n3)c(-c3cccc(NC(=O)Cc4cccs4)c3)nn2c1` [Example 71, N-{3-[6-Methyl-3-(2-{[3-(1-pyrrolidinylmethyl)phenyl]amino}-4-pyrimidinyl)pyrazolo[1,5-a]pyridin-2-yl]-phenyl}-2-(2-thienyl)acetamide], the “Activity (Method)” value in assay [3] is “+++ (B) (at least one pIC50 measurement of greater than 7 against either ErbB2 or EGFR)”.
The same measure, in the same setting: the same measure for `CN1CCc2ccc(Nc3nccc(-c4c(-c5cccc(NC(=O)Cc6cccs6)c5)nn5ccccc45)n3)cc2C1` [Example 8]: “+++ (B) (at least one pIC50 measurement of greater than 7 against either ErbB2 or EGFR)”; for `Cc1c(Nc2nccc(-c3c(-c4ccc(F)c(NC(=O)Cc5cccs5)c4)nn4ccccc34)n2)cccc1OCCN(C)C` [Example 60, N-[5-(3-{2-[(3-{[2-(Dimethylamino)ethyl]oxy}-2-methylphenyl)amino]-4-pyrimidinyl}pyrazolo[1,5-a]pyridin-2-yl)-2-fluorophenyl]-2-(2-thienyl)acetamide]: “++ (B) (at least one pIC50 measurement greater than 6 against either ErbB2 or EGFR but no measurement greater than pIC50 of 7)”; for `COc1ccc2c(-c3ccnc(Nc4cccc(OCCN(C)C)c4)n3)c(-c3cccc(NC(=O)/C=C/c4ccccc4)c3)nn2c1` [Example 68, (2E)-N-{3-[3-{2-[(3-{[2-(Dimethylamino)ethyl]oxy}phenyl)amino]-4-pyrimidinyl}-6-(methyloxy)pyrazolo[1,5-a]pyridin-2-yl]phenyl}-3-phenyl-propenamide]: “+++ (B) (at least one pIC50 measurement of greater than 7 against either ErbB2 or EGFR)”.
For `COc1ccc2c(-c3ccnc(Nc4cccc(OCCN(C)C)c4)n3)c(-c3cccc(NC(=O)C4(c5ccccc5)CC4)c3)nn2c1` [Example 67, N-{3-[3-{2-[(3-{[2-(Dimethylamino)ethyl]oxy}phenyl)amino]-4-pyrimidinyl}-6-(methyloxy)pyrazolo[1,5-a]pyridin-2-yl]phenyl}-1-phenylcyclopropanecarboxamide], the “Activity (Method)” value in assay [3] is recorded as “++ (B) (at least one pIC50 measurement greater than 6 against either ErbB2 or EGFR but no measurement greater than pIC50 of 7)”.
Take `COc1ccc2c(-c3ccnc(Nc4cccc(OCCN(C)C)c4)n3)c(-c3cccc(NC(=O)NCc4ccc(F)cc4)c3)nn2c1` [Example 70, N-{3-[3-{2-[(3-{[2-(Dimethylamino)ethyl]oxy}phenyl)amino]-4-pyrimidinyl}-6-(methyloxy)pyrazolo[1,5-a]pyridin-2-yl]phenyl}-N-[(4-fluorophenyl)methyl]urea]: the “Activity (Method)” value in assay [3] was “+++ (B) (at least one pIC50 measurement of greater than 7 against either ErbB2 or EGFR)”.
Consider `COc1ccc(-c2nn3ccccc3c2-c2ccnc(Nc3cccc(OCCN(C)C)c3C)n2)cc1NC(=O)Cc1cccs1` [Example 64, N-[5-(3-{2-[(3-{[2-(Dimethylamino)ethyl]oxy}-2-methylphenyl)amino]-4-pyrimidinyl}pyrazolo[1,5-a]pyridin-2-yl)-2-(methyloxy)phenyl]-2-(2-thienyl)acetamide], for which the “Activity (Method)” value in assay [3] was “+ (B) (no pIC50 measurement greater than 6 against either ErbB2 or EGFR)”.
On the same count and under the same terms, the same measure for `COc1ccc(-c2nn3ccccc3c2-c2ccnc(Nc3cc(OCCN(C)C)ccc3C)n2)cc1NC(=O)Cc1cccs1` [Example 66, N-[5-(3-{2-[(5-{[2-(Dimethylamino)ethyl]oxy}-2-methylphenyl)amino]-4-pyrimidinyl}pyrazolo[1,5-a]pyridin-2-yl)-2-(methyloxy)phenyl]-2-(2-thienyl)acetamide]: “+ (B) (no pIC50 measurement greater than 6 against either ErbB2 or EGFR)”; for `CC(=O)N1CCN(c2ccc(Nc3nccc(-c4c(-c5cccc(NC(=O)Cc6cccs6)c5)nn5cc(C)ccc45)n3)cc2)CC1` [Example 73, N-{3-[3-(2-{[4-(4-Acetyl-1-piperazinyl)phenyl]amino}-4-pyrimidinyl)-6-methylpyrazolo[1,5-a]pyridin-2-yl]phenyl}-2-(2-thienyl)acetamide]: “+++ (B) (at least one pIC50 measurement of greater than 7 against either ErbB2 or EGFR)”.
